From patent US11319329B2, “Inhibitors of Bruton's tyrosine kinase and methods of their use” (JANSSEN PHARMACEUTICA NV, priority 2015, dated 2022)

Molecular target: unphosphorylated-BTK kinase domain (UP-BTK), GST-tagged human BTK (389-659aa) (Homo sapiens (Human), UniProt Q06187)
Assay: BTK kinase Lanthascreen binding assay
Settings: for BTK_I_binding pIC50: negative log of the IC50 in molar, 60 minutes incubation
Method: BTK Kinase Lanthascreen Binding Assay:
A BTK kinase lanthascreen binding assay monitors compound binding to unphosphorylated-BTK kinase domain (UP-BTK), by competing with a fluorescent labeled tracer. […] Data were analyzed using Xlfit™ version 5.3 from ID Business Solutions (Guildford), Microsoft Excel add-in. pIC50 refers to the negative log of the IC50 in molar

[1] = unphosphorylated BTK kinase domain, Lanthascreen

Sequence of unphosphorylated-BTK kinase domain (UP-BTK), GST-tagged human BTK (389-659aa) (Q06187 389-659): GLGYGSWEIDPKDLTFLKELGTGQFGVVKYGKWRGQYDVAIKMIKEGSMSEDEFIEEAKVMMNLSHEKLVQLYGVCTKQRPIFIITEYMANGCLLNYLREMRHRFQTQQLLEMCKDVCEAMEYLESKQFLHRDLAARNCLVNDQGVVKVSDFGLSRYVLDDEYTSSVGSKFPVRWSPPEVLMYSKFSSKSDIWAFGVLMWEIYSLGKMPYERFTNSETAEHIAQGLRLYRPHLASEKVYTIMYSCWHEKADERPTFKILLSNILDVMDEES

| SMILES | BTK_I_binding pIC50 (50 nM Tracer 236) | other results |
| --- | --- | --- |
| C=CC(=O)N[C@H]1CCC[C@H]1NC(=O)c1sc2nccc3c2c1NC(=O)N3c1ccc(Oc2cccnc2)cc1 (relative stereo) [Example 300, N-((1R,2S)-2-Acrylamidocyclopentyl)-4-oxo-5-(*S)-(4-(pyridin-3-yloxy)phen)-4,5-dihydro-3H-1-thia-3,5,8-triazaacenaphthylene-2-carboxamide] | 8.27 | – |
| Cc1cc(Oc2ccccc2)ccc1N1C(=O)Nc2c(C(=O)N[C@@H]3CCC[C@H]3O)sc3nccc1c23 (single isomer, unassigned) [Example 4] | – | BTK_I_binding pIC50 [1]: 7.73 |
| Cc1cc(Oc2ccccc2)ccc1N1C(=O)Nc2c(C(=O)N[C@H]3CC[C@H](O)CC3)sc3nccc1c23 (single isomer, unassigned) [Example 85, N-((1R,4R)-4-Hydroxycyclohexyl)-5-(*S)-(2-methyl-4-phenoxyphenyl)-4-oxo-4,5-dihydro-3H-1-thia-3,5,8-triazaacenaphthylene-2-carboxamide] | – | IC50 (read-out: BTK_I_binding pIC50 (converted)): 21.4 nM |
| C=CC(=O)NC1CCCC[C@H]1NC(=O)c1sc2nccc3c2c1NC(=O)N3c1cnc(OCC(C)C)cc1C (single isomer, unassigned) [Example 352, N-((1R,2S)-2-Acrylamidocyclohexyl)-5-(*R)-(6-isobutoxy-4-methylpyridin-3-yl)-4-oxo-4,5-dihydro-3H-1-thia-3,5,8-triazaacenaphthylene-2-carboxamide] | <6 | – |
| CCC(=O)N[C@H]1CCC[C@H]1NC(=O)c1sc2nccc3c2c1NC(=O)N3c1ccc(Oc2ccccc2)nc1C (single isomer, unassigned) [Example 353, 5-(*S)-(2-Methyl-6-phenoxypyridin-3-yl)-4-oxo-N-((1R,2R)-2-propionamidocyclopentyl)-4,5-dihydro-3H-1-thia-3,5,8-triazaacenaphthylene-2-carboxamide] | <6 | – |
| C=CC(=O)N[C@H]1CCCC[C@H]1NC(=O)c1sc2nccc3c2c1NC(=O)N3c1cnc(CC(C)C)cc1C (single isomer, unassigned) [Example 357, N-((1R,2S)-2-Acrylamidocyclohexyl)-5-(*S)-(6-isobutyl-4-methylpyridin-3-yl)-4-oxo-4,5-dihydro-3H-1-thia-3,5,8-triazaacenaphthylene-2-carboxamide] | 7.98 | – |
| Cc1cc(Oc2ccccc2)ccc1N1C(=O)Nc2c(C(=O)N[C@H]3CCCC[C@@H]3NC=O)sc3nccc1c23 [Example 54, N-((1S,2S)-2-Formamidocyclohexyl)-5-(2-methyl-4-phenoxyphenyl)-4-oxo-4,5-dihydro-3H-1-thia-3,5,8-triazaacenaphthylene-2-carboxamide] | – | BTK_I_binding pIC50 [1]: 5.90 |
